Experimental data taken from patent US20260355199A1, “COMPOSITIONS AND METHODS FOR TREATING OR PREVENTING NONALCOHOLIC STEATOHEPATITIS (NASH), ANOREXIA, DEPRESSION, ENDOMETRIOSIS, AND OTHER DISEASES OR DISORDERS” (priority 2022, published 2026).
Entries after “also recorded” stand apart in the source; their conditions may differ.

How the values were obtained:
[1] = Liver toxicity (plasma ALT, AST, bilirubin) in endometriosis mice; type: in vivo, mouse; details: 6 weeks; for liver toxicity (plasma ALT, AST, bilirubin): 2.5 mg/kg i.p. once a week
Protocol: Blood samples were collected in EDTA tubes (Microtainer with K2EDTA, BD, 365974) by cardiac puncture of terminally anesthetized animals. The tubes were centrifuged at 2,000×g at 4 °C for 20 min, and plasma was collected and stored at −80 °C until use. Blood chemistry were measured according to the manufacturer's instructions. Kits used to measure alanine transaminase (EALT-100) and aspartate transaminase (EASTR-100) were purchased from Bioassay Systems. The bilirubin assay kit (MAK126) was purchased from Sigma Aldrich.

OC-bearing mice = assay: Ovarian cancer (ID8-luc2)-induced anorexia model; type: in vivo; details: 0.05 mg/mouse once a week i.p.
Excerpt: Furthermore, the present studies use the luciferase-expressing mouse ovarian surface epithelial cancer cell line ID8-luc2 (Liao J B et al., 2015, J Immunother Cancer, 3:16) that was originally derived from C57BL/6 mice (Roby K F et al., 2000, Carcinogenesis, 21:585-591). ID8-luc2 allow in vivo imaging of intraperitoneal tumors to monitor tumor growth (Udumula M P et al., 2021, Mol Metab., 53:101272; Liao J B et al., 2015, J Immunother Cancer, 3:16). Agrp-IRES-Cre::LSL-Cas9-GFP mice (C57BL/6 background) that express GFP specifically in AgRP neurons are used, hereafter called AgRP-GFP. […] Tumors were readily detected by bioluminescent imaging 10-14 days after inoculation (Udumula M P et al., 2021, Mol Metab., 53:101272; Liao J B et al., 2015, J Immunother Cancer, 3:16). Visible ascites (detected by abdominal swelling) developed at ~3 weeks following implantation (Roby K F et al., 2000, Carcinogenesis, 21:585-591). […] Bioluminescence signals of the tumor are recorded using the Xenogen IVIS system. Food intake is monitored manually on a daily basis and energy expenditure is measured using a computer-controlled indirect calorimetry system.
Additional studies test whether Bobcat339 alleviates OC-induced anorexia and hypermetabolism. […] Food intake are monitored daily and energy expenditure are determined once a week for three weeks before euthanasia. […]

SMILES: Nc1nc(=O)n(-c2cccc(-c3ccccc3)c2)cc1Cl [Bobcat339, 4-Amino-1-[1,1′-biphenyl]-3-yl-5-chloro-2(1H)-pyrimidinone]
- liver toxicity (plasma ALT, AST, bilirubin) [1]: no evidence of liver toxicity; also recorded: no differences between the groups
- liver toxicity (plasma ALT, AST, bilirubin) ([1]; listed as Bobcat): no differences between the groups
- liver toxicity ([1]; 3 mg/kg i.p. once a week): no evidence of liver toxicity
- OC progression (OC-bearing mice): decreased OC progression
- cancer anorexia and hypermetabolism (OC-bearing mice): not only prevents cancer anorexia and hypermetabolism from developing but eliminates it after it is established
